The values below are quoted from earlier work in patent US20220175829A1, “Antimicrobial Compositions” (Matoke Holdings Limited, priority 2019, published 2022).

Each structure is given as a SMILES string.

For the data set the following is noted: 20° C. and 1 atm.

For `O=C(CO)[C@@H](O)[C@H](O)[C@H](O)CO` [Fructose], the solubility entry is “about 375 g/100 g water”.
